Laboratory results published in US6541506B1, “Antifungal enediynes” (Phytera Incorporated, priority 1999, dated 2003).
In brackets after ≈: the same amount, converted by molar mass. Several values for one entry are separate records, joined by “and”; a condition that tells them apart may be missing. Equal values may be shown once.

What was measured:
C. albicans DSY1024 = test: Candida growth inhibition (XTT), C. albicans DSY1024; assay type: cell-based
Experimental: (§1) There are numerous assays that can be used to measure the inhibition of growth of a fungus such as Candida. In one example, cultures of Candida, e.g., C. albicans strains DSY1024 and SC5314, C. krusei ATCC 6258, and C. glabrata ATCC 90030, are subcultured from cryopreserved stocks onto Sabouraud's dextrose agar plates. Blastoconidia are suspended into RPMI-MOPS medium and inoculated (500 cfu/well) into 96-well plates containing test compounds in a final volume of 100 μL/well. After 22 hours at 35° C., 25 μL of XTT (2,3-bis(2-methoxy-4-nitro-5-sulfophenyl)-5-(phenylamino)carbonyl]-2H-tetrazolium hydroxide), (100 μg/mL) with PMS (phenazine methyl sulfate, 5 μM) are added to each well, followed by 2 hours of shaking. Growth is assessed spectrophotometrically by measuring the appearance of soluble formazan stain at 450 nm using an Emax microplate reader. Validity of the assay is confirmed by determination of the C. albicans minimum inhibitory concentration (MIC) for known antifungal agents such as amphotericin B, 5-flucytosine, fluconazole, nikkomycin Z, and polyoxin D.
LP416E8 (AC-05081-T4-3) was an organic extract of a manipulated plant cell culture from A. corsicum.

C. albicans SC5314 = test: Candida growth inhibition (XTT), C. albicans SC5314; assay type: cell-based
Experimental: as §1

C. albicans 90028 = test: Candida growth inhibition, C. albicans 90028; assay type: cell-based
Experimental: as §1

C. albicans A26 = test: Candida growth inhibition, C. albicans A26; assay type: cell-based
Experimental: as §1

C. albicans #64 = test: Candida growth inhibition, C. albicans #64; assay type: cell-based
Experimental: as §1
(§2) Using the cell growth assay described herein, Compound 1 was tested for its ability to inhibit growth of C. albicans, C. kefyr, C. tropicalis, C. krusei, and C. glabrata.

C. albicans UTR-14 = test: Candida growth inhibition, C. albicans UTR-14; assay type: cell-based; settings: C. albicans UTR-14, fluconazole-resistant strain
Experimental: as §1, §2

C. albicans 93-1226 = test: Candida growth inhibition, C. albicans 93-1226; assay type: cell-based; settings: C. albicans 93-1226, fluconazole-resistant strain
Experimental: as §1, §2

C. keyfer 46764 = test: Candida growth inhibition, C. keyfer 46764; assay type: cell-based, C. kefyr
Experimental: as §1, §2

C. tropicalis 623-20 = test: Candida growth inhibition, C. tropicalis 623-20; assay type: cell-based
Experimental: as §1, §2

C. tropicalis 750 = test: Candida growth inhibition, C. tropicalis 750; assay type: cell-based
Experimental: as §1, §2

C. tropicalis 97-1037 = test: Candida growth inhibition, C. tropicalis 97-1037; assay type: cell-based
Experimental: as §1, §2

C. krusei 6258 = test: Candida growth inhibition, C. krusei 6258; assay type: cell-based
Experimental: as §1, §2

C. krusei 97-1037 = test: Candida growth inhibition, C. krusei 97-1037; assay type: cell-based
Experimental: as §1, §2

C. glabrata 90030 = test: Candida growth inhibition, C. glabrata 90030; assay type: cell-based
Experimental: as §1, §2

C. glabrata 95-2421 = test: Candida growth inhibition, C. glabrata 95-2421; assay type: cell-based
Experimental: as §1, §2

C. glabrata 95-2425 = test: Candida growth inhibition, C. glabrata 95-2425; assay type: cell-based
Experimental: as §1, §2

S. cerevisiae AD1-9 = test: Anti-cell growth activity, S. cerevisiae AD1-9; assay type: cell-based
Experimental: (§3) The anti-cell growth activity of Compound 1 on other fungal strains, as well as bacterial strains and cultured mammalian cells, was also tested (Table 3). […] Bacterial cell growth and mammalian cell growth was inhibited at substantially higher concentrations of Compound 1.

S. cerevisiae 2229-5C = test: Anti-cell growth activity, S. cerevisiae 2229-5C; assay type: cell-based
Experimental: as §3

A. fumigatus 8001 = test: Anti-cell growth activity, A. fumigatus 8001; assay type: cell-based, Aspergillus fumigatus
Experimental: as §3

S. aureus 29213 = test: Anti-cell growth activity, S. aureus 29213; assay type: cell-based
Experimental: as §3

E. faecalis 29212 = test: Anti-cell growth activity, E. faecalis 29212; assay type: cell-based
Experimental: as §3

E. coli 700 = test: Anti-cell growth activity, E. coli 700; assay type: cell-based
Experimental: as §3

HFF cells = test: Anti-cell growth activity, cultured mammalian HFF cells; assay type: cell-based
Experimental: as §3

T. rubrum = test: Dermatophyte growth inhibition (microdilution, NCCLS M27A), T. rubrum; assay type: cell-based, Trichophyton rubrum; settings: T. rubrum, four days at 35° C., visual inspection
Experimental: (§4) The compounds of the invention are also effective against dermatophytes. Testing was performed using a microdilution method based on the NCCLS M27A antifungal protocol. Compounds to be tested were prepared in DMSO and diluted to the appropriate concentration in RPMI 1640 medium (the dermatophyte growth medium). An inoculum of each test organism was prepared from oatmeal agar plates to contain 0.5-2.5×10^3 conidia/mL. One hundred microliters of the inoculum was added to each well of a 96-well microtiter plate containing 4 μL of a test compound and 96 μL of RPMI 1640. Terbinafine (sold under the brand name Lamisil®) was used as a positive control.

T. mentagrophytes = test: Dermatophyte growth inhibition (microdilution, NCCLS M27A), T. mentagrophytes; assay type: cell-based; settings: T. mentagrophytes, four days at 35° C., visual inspection
Experimental: as §4

T. tonsurans = test: Dermatophyte growth inhibition (microdilution, NCCLS M27A), T. tonsurans; assay type: cell-based; settings: T. tonsurans, four days at 35° C., visual inspection
Experimental: as §4

M. canis = test: Dermatophyte growth inhibition (microdilution, NCCLS M27A), M. canis; assay type: cell-based, Microsporum canis; settings: M. canis, four days at 35° C., visual inspection
Experimental: as §4

[1] = tested on: C. albicans, C. kefyr, C. tropicalis, C. krusei, and C. glabrata; test: Candida growth inhibition, all tested strains (summary); assay type: cell-based, Candida spp.; settings: range over all tested strains incl. fluconazole-resistant 93-1226 and UTR-14
Experimental: as §1, §2

other fungal strains = test: Anti-cell growth activity on other fungal strains (summary); assay type: cell-based; settings: range over other fungal strains of Table 3
Experimental: as §3

Candida = test: Anti-Candida activity by backbone length; assay type: cell-based; settings: X=7
Excerpt: The variable X denotes the length of a saturated carbon backbone. The antifungal activity of the claimed compounds changes in part based on the length of this backbone. […] Preferably, X is an integer between 5 and 7, inclusive, although longer carbon chains (X=8-10) may preserve or increase antifungal activity.

[2] = tested on: C. albicans strain #64 (sensitive to fluconazole); design: species or system mice; settings: mouse, in vivo
Experimental: Immunocompetent mice (ICR, Sprague-Dawley, Indianapolis, Ind.) are infected with a pathogenic strain (e.g., strain #64) of C. albicans that is sensitive to fluconazole. After 24 hours, dissemination of infection has been shown by organ colony counts (kidney, spleen, and liver) greater than 10^5 colony forming units (CFU). Treatment is begun 24 hours after infection with dosage once a day for 10 days. Untreated control mice usually die after about 16 days. After 30 days the percent survival in the group treated with fluconazole (40 mg per kg body weight, twice a day) is about 30%. In addition to measuring animal viability, the organ fungal load (in CFU) can measured.

[3] = tested on: C. albicans UTR-14 (fluconazole-resistant clinical isolate); test: Fluconazole-resistant candidiasis in mice; assay type: in vivo; settings: fluconazole-resistant C. albicans UTR-14, 40 mg per kg body weight p.o. twice daily
Experimental: In a similar experiment using a fluconazole-resistant clinical isolate (e.g., C. albicans UTR-14), the percent survival after 20 days of the group treated with fluconazole (40 mg per kg body weight p.o. (twice daily)) and in the untreated group is each usually 0%.

SMILES: O=C(O)CCCCCCC/C=C/C#CC#Cc1ccco1 [Compound 1]
- MIC (C. albicans DSY1024; C. albicans DSY1024): 0.0025 µg/mL (≈ 0.00879 µM)
- MIC (C. albicans SC5314; C. albicans SC5314): 0.000625 µg/mL and 0.00125 µg/mL
- IC50 (C. albicans 90028): 0.00122 µg/mL (≈ 0.00429 µM)
- IC50 (C. albicans A26): 0.0011 µg/mL (≈ 0.00387 µM)
- IC50 (C. albicans #64): 0.00145 µg/mL (≈ 0.0051 µM)
- MIC (C. albicans #64): 0.005 µg/mL (≈ 0.0176 µM)
- IC50 (C. albicans UTR-14): 0.00364 µg/mL (≈ 0.0128 µM)
- MIC (C. albicans UTR-14): 0.0025 µg/mL (≈ 0.00879 µM)
- IC50 (C. albicans 93-1226): 0.0021 µg/mL (≈ 0.00739 µM)
- MIC (C. albicans 93-1226): 0.0025 µg/mL (≈ 0.00879 µM)
- MIC (C. keyfer 46764): 0.01 µg/mL (≈ 0.0352 µM)
- IC50 (C. tropicalis 623-20): 0.00296 µg/mL (≈ 0.0104 µM)
- MIC (C. tropicalis 623-20): 0.005 µg/mL (≈ 0.0176 µM)
- IC50 (C. tropicalis 750): 0.00467 µg/mL (≈ 0.0164 µM)
- MIC (C. tropicalis 750): 0.005 µg/mL (≈ 0.0176 µM)
- IC50 (C. tropicalis 97-1037): 0.00368 µg/mL (≈ 0.0129 µM)
- MIC (C. tropicalis 97-1037): 0.005 µg/mL (≈ 0.0176 µM)
- IC50 (C. krusei 6258): 0.0419 µg/mL (≈ 0.147 µM)
- MIC (C. krusei 6258): 0.05 µg/mL (≈ 0.176 µM)
- IC50 (C. krusei 97-1037): 0.0261 µg/mL (≈ 0.0918 µM)
- MIC (C. krusei 97-1037): 0.05 µg/mL (≈ 0.176 µM)
- IC50 (C. glabrata 90030): 0.0125 to 0.025 µg/mL
- MIC (C. glabrata 90030): 0.005 µg/mL (≈ 0.0176 µM)
- IC50 (C. glabrata 95-2421): 0.00825 µg/mL (≈ 0.029 µM)
- MIC (C. glabrata 95-2421): 0.0125 µg/mL (≈ 0.044 µM)
- IC50 (C. glabrata 95-2425): 0.00313 to 0.00625 µg/mL
- MIC (C. glabrata 95-2425): 0.0125 µg/mL (≈ 0.044 µM)
- IC50 (S. cerevisiae AD1-9): 0.18 µg/mL (≈ 0.633 µM)
- MIC (S. cerevisiae AD1-9): 0.25 µg/mL (≈ 0.879 µM)
- IC50 (S. cerevisiae 2229-5C): 0.5 to 1.0 µg/mL
- MIC (S. cerevisiae 2229-5C): 1 µg/mL (≈ 3.52 µM)
- IC50 (A. fumigatus 8001): 50 to 100 µg/mL
- MIC (A. fumigatus 8001): 200 µg/mL (≈ 703 µM)
- IC50 (S. aureus 29213): 31.6 µg/mL (≈ 111 µM)
- MIC (S. aureus 29213): 50 µg/mL (≈ 176 µM)
- IC50 (E. faecalis 29212): 7.5 µg/mL (≈ 26.4 µM)
- MIC (E. faecalis 29212): 12.5 µg/mL (≈ 44 µM)
- MIC (E. coli 700): >200 µg/mL
- IC50 (HFF cells): 12 µg/mL (≈ 42.2 µM)
- MIC (T. rubrum): 0.001 µg/mL (≈ 0.00352 µM)
- MIC (T. mentagrophytes): 0.001 µg/mL (≈ 0.00352 µM)
- MIC (T. tonsurans): 0.001 µg/mL (≈ 0.00352 µM)
- MIC (M. canis): 0.001 µg/mL (≈ 0.00352 µM)
- IC50 values, all tested Candida strains [1]: 0.00035 to 0.042 µg/mL
- IC50 values, fungal growth, lower end of range (other fungal strains): ≥ 0.18 µg/mL
- anti-Candida activity (ranking by backbone length X) (Candida): greatest anti-Candida activity

SMILES: OC(Cn1cncn1)(Cn1cncn1)c1ccc(F)cc1F [fluconazole]
- percent survival after 30 days [2]: about 30%
- percent survival after 20 days [3]: 0%

SMILES: O=C(O)CCCCCC=CC#CC#Cc1ccco1 [Compound 2]
- IC50 (C. albicans DSY1024; C. albicans DSY1024 (Table 4)): 1.817 µg/mL (≈ 7.09 µM)
- MIC (C. albicans DSY1024; C. albicans DSY1024 (Table 4)): 3.125 µg/mL (≈ 12.2 µM)
- inhibition of growth of strain SC5314 (C. albicans SC5314): able to inhibit growth
- IC50 (C. albicans SC5314; C. albicans SC5314 (Table 4)): 2.592 µg/mL (≈ 10.1 µM)
- MIC (C. albicans SC5314; C. albicans SC5314 (Table 4)): 3.125 µg/mL (≈ 12.2 µM)

SMILES: O=C(O)CCCCCCC=CC#CC#Cc1ccco1 [Compound 3]
- IC50 (C. albicans DSY1024; C. albicans DSY1024 (Table 4)): 0.503 µg/mL (≈ 1.86 µM)
- MIC (C. albicans DSY1024; C. albicans DSY1024 (Table 4)): 1 µg/mL (≈ 3.7 µM)
- MIC (T. rubrum): 8.0 µg/mL (≈ 29.6 µM)
- MIC (T. mentagrophytes): 2.0 µg/mL (≈ 7.4 µM)
- MIC (T. tonsurans): 2.0 µg/mL (≈ 7.4 µM)
- MIC (M. canis): 2.0 µg/mL (≈ 7.4 µM)
